In patent US11000511B2, “Chemical compounds as antibiotics” (priority 2017, dated 2021):

Legend:
[1] = biological target: T1, purified LasB protein from P. aeruginosa (Pseudomonas aeruginosa, UniProt P14756); assay: Fluorometric assay to determine Ki (Assay 1); type: biochemical; conditions: Ki (μM) Assay 1, purified LasB, substrate Abz-Ala-Gly-Leu-Ala-p-Nitro-Benzyl-Amide 250 μM, Ki calculated from IC50; inhibitor 0.006 to 200 μM
T1 construct: purchased Merck or Charles River Laboratories
In short: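 Purified LasB (10 to 140 ng/ml) with 250 μM Abz-Ala-Gly-Leu-Ala-p-nitrobenzylamide in 50 mM Tris-HCl pH 7.4, 2.5 mM CaCl2, 0.01% Triton X100; hydrolysis read by fluorescence (Ex 340/Em 415 nm) over 30 min at 37° C. Inhibitor 2-fold series, 0.006–200 μM (Assay 1) or 0.0016–200 μM (Assay 2); IC50 converted to Ki via Ki=IC50/(1+[S]/Km), Km=214 μM.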

[2] = biological target: T2, LasB elastase activity in dialysed supernatant from P. aeruginosa strain PA01 (Pseudomonas aeruginosa, UniProt P14756); assay: Elastin Congo Red assay to determine % inhibition (Assay 1); type: biochemical; conditions: read-out: Elastin hydrolysis % inhibition @ 50/25 μM inhibitor concentration Assay 1
T2 construct: uses as source of enzyme dialysed supernatant from P. aeruginosa; endogenous in cells; host or cells: P. aeruginosa strain PA01 culture supernatant, filtered and dialysed
Description: Experiments were therefore conducted (1) to measure the potency of inhibition of compounds of the invention against purified Pseudomonas aeruginosa LasB enzyme and also experiments were conducted (2) to measure the ability of compounds of the invention to inhibit LasB-catalysed elastin degradation. The first assay uses a commercial fluorescent synthetic peptide and purified LasB enzyme. The LasB hydrolysis kinetics are measured allowing the determination of the IC50 and Ki of the inhibitors; the second is a more physiological assay using dialysed Pseudomonas aeruginosa supernatant as source of enzyme, plus its natural substrate Elastin. It is an “end point assay” that determines the percentage of LasB inhibition by each compound for one particular time point and inhibitor concentration. Technical details are described below:
The Elastin assay uses as source of enzyme dialysed supernatant from P. aeruginosa and the elastin congo red as substrate. The natural LasB substrate, elastin, is complexed with the congo red dye (Elastin Congo Red, ECR). The elastolysis activity from the culture supernatant will degrade elastin and release the congo red dye into the supernatant. This red dye release can be measured with a spectrophotometer. Some compounds of Formula (I) were assessed using the method of Assay 1 (described below). Other compounds of Formula (I) were assessed using the alternative but equivalent method of Assay 2 (described below).
Method (Assay 1): To determine LasB elastase activity and assess compound inhibition, an overnight culture of P. aeruginosa strain PA01 is diluted thousand-fold in LB medium. This diluted solution is incubated during 19 hours in a shaking incubator. Culture supernatants are recovered by centrifugation and filtrated through a […] filter. These supernatants are dialysed (filtration molecules <20 kDa) into a 50 mM Tris pH 7.4, 2.5 mM CaCl2 solution at 4° C. under agitation for 24 hours. Supernatant dialysed is then mixed volume/volume with the ECR suspension (20 mg/mL of ECR in 100 mM Tris buffer supplemented with 1 mM CaCl2) supplemented with TritonX 100 (final concentration of 0.01%) in presence of different concentrations of compound (routinely 50 and 25 μM). The mixed reaction is then incubated for 24 hours in a 37° shaking incubator. As a negative control, the mixed supernatant is replaced by Tris solution (50 mM Tris pH 7.4, 2.5 mM CaCl2). The reaction supernatant is recovered by centrifugation and the release of congo red is measured by its absorbance at OD520. Percentage inhibition is determined using the following equation: (OD520 value of DMSO SN−OD520 value of LB)−(OD520 value of Compound SN−OD520 value of LB)/(OD520 value of DMSO SN−OD520 value of LB)×100.

T1 sequence (P14756 198-498): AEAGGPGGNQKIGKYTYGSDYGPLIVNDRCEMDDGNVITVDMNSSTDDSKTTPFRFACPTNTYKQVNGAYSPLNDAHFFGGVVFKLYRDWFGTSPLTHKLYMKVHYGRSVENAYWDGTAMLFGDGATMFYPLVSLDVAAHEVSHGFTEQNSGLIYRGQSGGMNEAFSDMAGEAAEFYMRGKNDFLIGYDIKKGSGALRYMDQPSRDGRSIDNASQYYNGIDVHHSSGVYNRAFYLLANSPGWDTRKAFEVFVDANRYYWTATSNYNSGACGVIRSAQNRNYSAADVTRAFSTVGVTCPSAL
T2 sequence (P14756 198-498): as above

SMILES	Ki [1] [µM]	inhibition at 50 µM [2] [%]
CN1CCC(OC(=O)[C@H](Cc2c[nH]c3ccccc23)NC(=O)C2(CC(=O)O)Cc3ccccc3C2)CC1 [Example 45, 2-(2-{[(2S)-3-(1H-indol-3-yl)-1-[(1-methylpiperidin-4-yl)oxy]-1-oxopropan-2-yl]carbamoyl}-2,3-dihydro-1H-inden-2-yl)acetic acid]	< 0.3	> 60
C[N+](C)(C)CCNC(=O)[C@H](Cc1c[nH]c2ccccc12)NC(=O)C1(CC(=O)O)Cc2ccccc2C1 [Example 46, (2-{[(1S)-2-(1H-indol-3-yl)-1-{[2-(trimethylammonio)ethyl]carbamoyl}ethyl]carbamoyl}-1,3-dihydroinden-2-yl)acetate]	2 to 10	30 to 60
CC(C)(C)OC(=O)[C@H](Cc1c[nH]c2ccccc12)NC(=O)C1(CC(=O)O)Cc2ccccc2C1 [Example 47, (S)-2-(2-((1-(tert-butoxy)-3-(1H-indol-3-yl)-1-oxopropan-2-yl)carbamoyl)-2,3-dihydro-1H-inden-2-yl)acetic acid]	< 0.3	> 60
NC(=O)[C@H](Cc1ccc(O)cc1)NC(=O)C1(CC(=O)O)Cc2ccccc2C1 [Example 48, (S)-2-(2-((1-amino-3-(4-hydroxyphenyl)-1-oxopropan-2-yl)carbamoyl)-2,3-dihydro-1H-inden-2-yl)acetic acid]	2 to 10	30 to 60
O=C(O)CC1(C(=O)N[C@@H](Cc2ccc(O)cc2)C(=O)O)Cc2ccccc2C1 [Example 49, (2-(carboxymethyl)-2,3-dihydro-1H-indene-2-carbonyl)-L-tyrosine]	0.3 to 2	> 60
O=C(O)CC1(C(=O)N[C@@H](Cc2c[nH]c3ccccc23)C(=O)O)Cc2ccccc2C1 [Example 50, (2-(carboxymethyl)-2,3-dihydro-1H-indene-2-carbonyl)-L-tryptophan]	< 0.3	> 60
O=C(O)CC1(C(=O)NCc2nc3ccccc3[nH]2)Cc2ccccc2C1 [Example 51, 2-(2-(((1H-benzo[d]imidazol-2-yl)methyl)carbamoyl)-2,3-dihydro-1H-inden-2-yl)acetic]	2 to 10	15 to 30
NC(=O)[C@H](Cc1c[nH]c2ccccc12)NC(=O)C1(CC(=O)O)Cc2ccccc2C1 [Example 52, (S)-2-(2-((1-amino-3-(1H-indol-3-yl)-1-oxopropan-2-yl)carbamoyl)-2,3-dihydro-1H-inden-2-yl)acetic acid]	< 0.3	> 60
COC(=O)[C@H](Cc1c[nH]c2ccccc12)NC(=O)C1(CC(=O)O)Cc2ccccc2C1 [Example 53, (S)-2-(2-((3-(1H-indol-3-yl)-1-methoxy-1-oxopropan-2-yl)carbamoyl)-2,3-dihydro-1H-inden-2-yl)acetic acid]	0.3 to 2	> 60
O=C(O)CC1(C(=O)NCc2nccs2)Cc2ccccc2C1 [Example 54, 2-(2-((thiazol-2-ylmethyl)carbamoyl)-2,3-dihydro-1H-inden-2-yl)acetic acid]	0.3 to 2	> 60
O=C(O)CC1(C(=O)NCc2ccc3ccccc3n2)Cc2ccccc2C1 [Example 55, 2-(2-((quinolin-2-ylmethyl)carbamoyl)-2,3-dihydro-1H-inden-2-yl)acetic acid]	0.3 to 2	> 60
Cn1c(CNC(=O)C2(CC(=O)O)Cc3ccccc3C2)nc2ccccc21 [Example 56, 2-(2-(((1-methyl-1H-benzo[d]imidazol-2-yl)methyl)carbamoyl)-2,3-dihydro-1H-inden-2-yl)acetic acid]	0.3 to 2	30 to 60
O=C(O)CC1(C(=O)NCc2coc3ccccc23)Cc2ccccc2C1 [Example 57, 2-[2-(benzofuran-3-ylmethylcarbamoyl)indan-2-yl]acetic acid]	0.3 to 2	30 to 60
O=C(O)CC1(C(=O)NCc2nc3c(F)cccc3s2)Cc2ccccc2C1 [Example 60, 2-(2-(((4-fluorobenzo[d]thiazol-2-yl)methyl)carbamoyl)-2,3-dihydro-1H-inden-2-yl)acetic acid]	< 0.3	> 60
